Test results published in patent US20210046101A1, “COMBINATION THERAPEUTICS” (UCL BUSINESS LTD, priority 2018, published 2021).
Where a SMILES comes first, the peptide text is derived from it. The star is where a group is joined. Cbz = O=C(OCc1ccccc1)*; CH2F = FC*

B1: TRAIL: TNF-related apoptosis-inducing ligand; used as mouse iz-TRAIL (protein, UniProt P50592 39-291, looked up)
extracellular domain: YMYFTNEMKQLQDNYSKIGLACFSKTDEDFWDSTDGEILNRPCLQVKRQLYQLIEEVTLRTFQDTISTVPEKQLSTPPLPRGGRPQKVAAHITGITRRSNSALIPISKDGKTLGQKIESWESSRKGHSFLNHVLFRNGELVIEQEGLYYIYSQTYFRFQEAEDASKMVSKDKVRTKQLVQYIYKYTSYPDPIVLMKSARNSCWSRDAEYGLYSIYQGGLFELKKNDRIFVSVTNEHLMDLDQEASFFGAFLIN
modifications: extracellular domain isoleucine zipper fusion

Tests used:
[1] = test system: PMKs derived from Hoip^E-KO mice; test: Viability of primary murine keratinocytes (PMKs) from Hoip^E-KO mice cultured with inhibitors, CellTiter-Glo assay; type: cell-based, mouse; conditions: no exogenous stimulus, cultured four days with 20 μM Z-VAD-fmk, 10 μM Necrostatin-1s or 1 μM RIPK3 inhibitor (FIG. 3e)
Excerpt: FIG. 3. Aberrant apoptosis drives lethal dermatitis in Hoip^E-KO and Hoil-1^E-KO mice. a, Quantification of TUNEL and CC3 positive cells in skin sections from mice with the indicated genotypes (n=3 mice per genotype). Error bars represent mean values±s.e.m. *P≤0.05, **P≤0.01, ***P≤0.001. b, Representative images of skin sections from mice with the indicated genotypes (n=4) stained with antibody against CD45 (red) at P0. Nuclei were stained with DAPI (blue). White dashed lines separate the epidermis (above) from the dermis (below). Scale bar, 50 μm. c, Flow cytometry analysis of immune cells in skin samples from mice with the indicated genotypes at the indicated postnatal days. […] Lysates and IP were analysed by Western blotting for the indicated proteins. e, PMKs derived from Hoip^E-KO and control mice were cultured for four days in absence (NT: not-treated) or presence of the inhibitors Necrostatin-1s (N), ZVAD-fmk (Z) or RIPK3i. Cell viability (%) was measured by CellTiter-Glo assay on day four. […] CC3: cleaved Caspase-3. f, Cell viability (%) measured by CellTiter-Glo assay of PMKs derived from adult mice with the indicated genotypes. Results are expressed as mean values±SEM (n=8 mice per genotype). […] CC3: cleaved Caspase-3. i, Quantification of TUNEL and CC3 positive cells in skin sections from mice with the indicated genotypes (n=3 mice per genotype). […]

[2] = test system: PMKs derived from Tnfr1^KO;Hoil-1^E-KO mice; test: Viability of PMKs from Tnfr1^KO;Hoil-1^E-KO mice after death ligand / Poly(I:C) stimulation, CellTiter-Glo assay; type: cell-based, mouse; conditions: 24 hours; TRAIL 50 ng/ml, CD95L 50 ng/ml, Poly(I:C) 100 μg/ml; control = Tnfr1^KO PMKs with HOIL-1 (FIG. 4a)
Experimental: FIG. 4. CD95L- and TRAIL-induced cell death drives TNFR1-independent dermatitis. a, PMKs derived from adult mice with the indicated genotypes were treated or not for 24 hours with TRAIL [50 ng/ml], CD95L [50 ng/ml] and Poly(I:C) [100 μg/ml]. Cell viability (%) was measured by CellTiter-Glo assay. Results are expressed as mean values±SEM. (n=7 mice per genotype). **p≤0.01, ***p≤0.001, NS=not significant. Control mice represent a pool of Tnfr1^KO;Hoil-1^fl/fl;K14-Cre− and Tnfr1^KO;Hoil-1^fl/wt;K14-Cre+ mice b, Representative images of mice with the indicated genotypes. c, Severity score of dermatitis was assessed at P70 in mice with the indicated genotypes. The total score was determined by evaluating the regions of the body affected by the lesions (black) and the character of the lesion (white). Tnfr1^KO;Hoil-1^E-KO (n=6), Trail-r^KO;Tnfr1^KO;Hoil-1^E-KO (n=4), Tlr3^KO;Tnfr1^KO;Hoil-1^E-KO (n=4), Cd95^E-DD; Tnfr1^KO; Hoil-1^E-KO (n=12), Trail-r^KO; Tlr3^KO;Tnfr1^KO;Hoil-1^E-KO (n=20) and Cd95^E-DD;Trail-r^KO;Tnfr1^KO;Hoil-1^E-KO (n=19), Mlkl^KO;Tnfr1^KO;Hoip^E-KO (n=13). d, Kaplan-Meier survival curve of mice with the indicated genotypes. […]
Isolation, culture and viability of primary murine keratinocytes. […] On the last day, cell viability was measured using the CellTiter-Glo Luminescent Cell Viability Assay kit (Promega) following the manufacturers instructions. […]

Molecule	loss in viability of HOIP-deficient PMKs (cell viability, CellTiter-Glo) [1]	cell viability as compared to control PMKs (CellTiter-Glo) [2]
COC(=O)C[C@H](NC(=O)[C@H](C)NC(=O)[C@@H](NC(=O)OCc1ccccc1)C(C)C)C(=O)CF [ZVAD, Z-VAD-fmk] (Cbz-Val-Ala-Asp(OMe)-CH2F)	prevented	
CN1C(=O)NC(Cc2c[nH]c3c(Cl)cccc23)C1=O (stereo not shown) [necrostatin-1s, Necrostatin-1s]	prevented	
Polyinosinic:polycytidylic acid [Poly(I:C)]		decreased cell viability
B1		decreased cell viability
